# Data as given in patent publication US7858647B2, “N-[1,3,4]-thiadiazol-2-yl-benzene sulfonamides, pharmaceutical compositions thereof and methods for their therapeutic use” (Sanofi-Aventis, priority 2005, dated 2010).
# Biological target: T1, human PPARdelta (Homo sapiens, UniProt Q03181)
# T1 construct: amino acids S139-Y441; expressed in transfected cells
# T1 sequence (Q03181 139-441): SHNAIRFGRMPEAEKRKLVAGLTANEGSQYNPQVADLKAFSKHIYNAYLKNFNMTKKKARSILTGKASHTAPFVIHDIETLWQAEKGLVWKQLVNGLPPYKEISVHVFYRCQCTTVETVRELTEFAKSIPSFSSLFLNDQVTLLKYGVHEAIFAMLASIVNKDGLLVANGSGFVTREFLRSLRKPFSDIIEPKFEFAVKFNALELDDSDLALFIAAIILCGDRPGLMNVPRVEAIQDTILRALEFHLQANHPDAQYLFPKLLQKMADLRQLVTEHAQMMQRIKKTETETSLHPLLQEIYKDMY
# Experiment: Cellular PPARdelta assay (luciferase reporter, stably transfected HEK cell line)
# Assay type: cell-based
# Details: GR-GAL4-humanPPARdelta-LBD
# Description: The activity of PPARalpha agonists is determined in a 3-day assay which is described below:
# The PPARalpha reporter cell line is cultivated to 80% confluence in DMEM (#41965-039, Invitrogen) which is mixed with the following additions: 10% cs-FCS (fetal calf serum; #SH-30068.03, Hyclone), 0.5 mg/ml zeocin (#R250-01, Invitrogen), 0.5 mg/ml G418 (#10131-027, Invitrogen), 1% penicillin-streptomycin solution (#15140-122, Invitrogen) and 2 mM L-glutamine (#25030-024, Invitrogen). The cultivation takes place in standard cell culture bottles (#353112, Becton Dickinson) in a cell culture incubator at 37° C. in the presence of 5% CO2. The 80%-confluent cells are washed once with 15 ml of PBS (#14190-094, Invitrogen), treated with 3 ml of trypsin solution (#25300-054, Invitrogen) at 37° C. for 2 min, taken up in 5 ml of the DMEM described and counted in a cell counter. After dilution to 500.000 cells/ml, 35,000 cells are seeded in each well of a 96 well microtiter plate with a clear plastic base (#3610, Corning Costar). The plates are incubated in the cell culture incubator at 37° C. and 5% CO2 for 24 h.
# PPARalpha Agonists to be Tested are Dissolved in DMSO in a Concentration of 10 mM. This stock solution is diluted in DMEM (#41965-039, Invitrogen) which is mixed with 5% cs-FCS (#SH-30068.03, Hyclone), 2 mM L-glutamine (#25030-024, Invitrogen) and the previously described antibiotics (zeocin, G418, penicillin and streptomycin). Test substances are tested in 11 different concentrations in the range from 10 μM to 100 pM.
# The medium of the PPARalpha reporter cell line seeded on day 1 is completely removed by aspiration, and the test substances diluted in medium are immediately added to the cells. The dilution and addition of the substances is carried out by a robot (Beckman FX). The final volume of the test substances diluted in medium is 100 μl per well of a 96 well microtiter plate. The DMSO concentration in the assay is less than 0.1% v/v in order to avoid cytotoxic effects of the solvent.
# The assay plates are incubated in an incubator at 37° C. and 5% CO2 for 24 h.
# The PPARalpha reporter cells treated with the test substances are removed from the incubator, and the medium is aspirated off. The cells are lyzed by pipetting 50 μl of Bright Glo reagent (from Promega) into each well of a 96 well microtiter plate. After incubation at room temperature in the dark for 10 minutes, the microtiter plates are measured in the luminometer (Trilux from Wallac). The measuring time for each well of a microtiter plate is 1 sec.
# The raw data from the luminometer are transferred into a Microsoft Excel file. Dose-effect plots and EC50 values of PPAR agonists are calculated using the XL.Fit program as specified by the manufacturer (IDBS).
# The potency of substances which bind to human PPARdelta and activate it in an agonistic manner is analyzed using a stably transfected HEK cell line (HEK=human embryo kidney) which is referred to here as PPARdelta reporter cell line. In analogy to the assay described for PPARalpha, the PPARdelta reporter cell line also contains two genetic elements, a luciferase reporter element (pdeltaM-GAL4-Luc-Zeo) and a PPARdelta fusion protein (GR-GAL4-humanPPARdelta-LBD) which mediates expression of the luciferase reporter element depending on a PPARdelta ligand. The stably and constitutively expressed fusion protein GR-GAL4-humanPPARdelta-LBD binds in the cell nucleus of the PPARdelta reporter cell line via the GAL4 protein portion to the GAL4 DNA binding motifs 5′-upstream of the luciferase reporter element which is stably integrated in the genome of the cell line. There is only little expression of the luciferase reporter gene in the absence of a PPARdelta ligand if fatty acid-depleted fetal calf serum (cs-FCS) is used in the assay. PPARdelta ligands bind and activate the PPARdelta fusion protein and thereby stimulate expression of the luciferase reporter gene. […]
row,EC50 [nM],SMILES
1,40,"CCOc1cc(C(F)(F)F)ccc1C(=O)NCC(C)c1ccc(S(=O)(=O)Nc2nnc(C(C)C)s2)cc1 (single isomer, unassigned) [Example 43a]"
2,2800,"CC(C)(C)c1nnc(NS(=O)(=O)c2ccc(CCNC(=O)c3cc(Cl)ccc3Cl)cc2)s1 [Example 35, N-{2-[4-(5-tert-Butyl-[1,3,4]thiadiazol-2-ylsulfamoyl)-phenyl]-ethyl}-2,5-dichloro-benzamide]"
3,10,"CCOc1cc(C(F)(F)F)ccc1C(=O)NCC(CC)c1ccc(S(=O)(=O)Nc2nnc(C(C)C)s2)cc1 (single isomer, unassigned) [Example 44b]"
4,40,"CCOc1cc(C(F)(F)F)ccc1C(=O)NCC(CC)c1ccc(S(=O)(=O)Nc2nnc(C(C)C)s2)cc1 (single isomer, unassigned) [Example 44a]"
5,3610,"Cc1ccc(Cl)cc1C(=O)NCCc1ccc(S(=O)(=O)Nc2nnc(-c3ccccc3)s2)cc1 [Example 32, 5-Chloro-2-methyl-N-{2-[4-(5-phenyl-[1,3,4]thiadiazol-2-ylsulfamoyl)-phenyl]-ethyl}-benzamide]"
6,760,"CC(C)c1nnc(NS(=O)(=O)c2ccc(CNC(=O)c3ccc(C(F)(F)F)cc3)cc2)s1 [Example 24, N-[4-(5-Isopropyl-[1,3,4]thiadiazol-2-ylsulfamoyl)-benzyl]-4-trifluoromethyl-benzamide]"
7,60,"Cc1cc(Br)c(C(=O)NCCc2ccc(S(=O)(=O)Nc3nnc(C(C)C)s3)cc2)s1 [Example 47, 3-Bromo-5-methyl-thiophene-2-carboxylic acid {2-[4-(5-isopropyl-[1,3,4]thiadiazol-2-ylsulfamoyl)-phenyl]-ethyl}-amide]"
8,20,"CCOc1cc(C(F)(F)F)ccc1C(=O)NCC(C)c1ccc(S(=O)(=O)Nc2nnc(C(C)C)s2)cc1 (racemic) [Example 43, 2-Ethoxy-N-{2-[4-(5-isopropyl-[1,3,4]thiadiazol-2-ylsulfamoyl)-phenyl]-propyl}-4-trifluoromethyl-benzamide]"
9,110,"COc1cc(C(F)(F)F)ccc1C(=O)NCCc1ccc(S(=O)(=O)Nc2nnc(C(C)C)s2)cc1 [Example 1, N-{2-[4-(5-Isopropyl-[1,3,4]thiadiazol-2-ylsulfamoyl)-phenyl]-ethyl}-2-methoxy-4-trifluoromethyl-benzamide]"
10,1100,"COc1ccc(C(=O)NCCc2ccc(S(=O)(=O)Nc3nnc(C(C)C)s3)cc2)c(OC)n1 [Example 5, N-{2-[4-(5-Isopropyl-[1,3,4]thiadiazol-2-ylsulfamoyl)-phenyl]-ethyl}-2,6-dimethoxy-nicotinamide]"
11,440,"COc1ccc(C(C)(C)C)cc1C(=O)NCCc1ccc(S(=O)(=O)Nc2nnc(C(C)C)s2)cc1 [Example 2, 5-tert-Butyl-N-{2-[4-(5-isopropyl-[1,3,4]thiadiazol-2-ylsulfamoyl)-phenyl]-ethyl}-2-methoxy-benzamide]"
12,20,"CCOc1cc(C(F)(F)F)ccc1C(=O)NCC(C)c1ccc(S(=O)(=O)Nc2nnc(C(C)C)s2)cc1 (single isomer, unassigned) [Example 43b]"
